# Results reported in US6716829B2, “Aldosterone antagonist and cyclooxygenase-2 inhibitor combination therapy to prevent or treat inflammation-related cardiovascular disorders” (Pharmacia Corporation, priority 2000, dated 2004).
# Where “and” joins values, the source holds several entries; their conditions need not be identical. Identical values can stand only once.
# Legend:
# [1] = tested on: angiotensin II infused rats; test: Assay A, angiotensin II infusion model: systolic blood pressure by tail-cuff; format: in vivo, Male Wistar rats; conditions: angiotensin II 25 ng/min sc, 1% NaCl; eplerenone 100 mpk; aldosterone in adrenalectomized rats; 4 weeks
# Method: Human cardiovascular disorders are complex conditions, often initiated by vascular hypertension or a myocardial infarction (MI). In order to determine the probable effectiveness of a therapy for cardiovascular disorders, it is important to determine the potency of components in several assays. Accordingly, in Assay “A”, the efficacy of the aldosterone antagonist epeplerenone (epoxymexrenone) was determined in a hypertensive rat model with vascular inflammation, using angiotensin II infusion. In Assay “B” a study is described evaluating the efficacy of the aldosterone antagonist epeplerenone (epoxymexrenone) in a rat model using aldosterone infusion to produce hypertension with vascular inflammation. In Assay “C” a further study is described evaluating the efficacy of the aldosterone antagonist epeplerenone (epoxymexrenone) in a rat model using aldosterone infusion to produce hypertension with vascular inflammation.
# Assay A: In Vivo Angiotensin II Infusion Model
# Male Wistar rats (n=50, 10/group; BW=200 g)
# SBP measured by tail-cuff every week
# [2] = tested on: aldosterone + salt treated uninephrectomized rats; test: Assay C, further aldosterone infusion study: radiotelemetrized arterial (systolic) blood pressure; format: in vivo, Male Sprague-Dawley rats; conditions: for Systolic Blood Pressure (mmHg): mean ± SEM of values every 5 min over 24-hour period
# Method: Assay C: Further In Vivo Aldosterone Infusion Study
# The procedure of Assay B was expanded upon in a further study. […] Myocardial tissue from animals in each treatment group was examined after 7, 14, or 30 days of treatment.
# Male Sprague-Dawley rats, weighing 230 to 250 g, (Harlan Sprague-Dawley Industries, Indianapolis, IN) were housed in a room 12-hours light/12-hours dark daily cycle at an ambient temperature of 22±1° C. (n=96). Animals were allowed one week to adjust after arrival and had free access to TEKLAD 22/5 rodent diet (Harlan TEKLAD, Madison, Wis.) and tap water until the initiation of the experiment.
# Potassium chloride supplementation was added to the saline solution in order to prevent the potential hypokalemia associated with aldosterone excess.
# At the time of the surgery, an Alzet 2002 osmotic minipump (Alza Corp., Palo Alto, Calif.) containing either vehicle (9% ethanol/87% propylene glycol/4% dH2O) or 1.0 mg/mL d-aldosterone (Sigma Chemical, St. Louis, Mo.) was inserted subcutaneously at the nape of the neck. Aldosterone was administered at a dose of 0.75 µg/hour. […] Animals were sacrificed from each group (n=8-13) after 7, 14, or 30 days of treatment.
# Animals to be sacrificed after 7 or 14 days of treatment were uninephrectomized and implanted with an Alzet minipump. Animals treated for 30 days were uninephrectomized, fitted for Alzet minipumps, and implanted with radio telemetry units (model #TA11PA-C40, Data Sciences Inc., St. Paul, Minn.) according to the following procedure. Animals were anesthetized with 5% isoflurane (SOLVAY Animal Health Inc., Mendota Heights, Minn.), which was delivered in O2 using a VMS anesthesia instrument (Matrix Medical, Inc., Orchard Park, N.Y.). Anesthesia was maintained with 1-2% isoflurane throughout the surgical procedure. The surgery site was clipped, scrubbed with nolvasan, and sprayed with betadine. A rostral-caudal incision was made through the skin from the base of the rib cage to the pubic region using a #11 scalpel blade. A second incision was made through the muscles of the abdominal wall to expose the peritoneal cavity. The […], renal artery and vein of the left kidney were isolated, tied off with 4-0 silk, and the kidney excised and discarded. Organs were carefully displaced with tissue retractors in order to expose the abdominal aorta. A 1.5 cm segment just rostral to the bifurcation of the abdominal aorta into the iliac arteries was cleared of excessive connective tissue and 4-0 silk was used to make an anchor adjacent to the aorta. A microvascular clip was then placed at both ends of the cleaned region to stop excessive blood flow. Using a bent, 21 gauge needle, the abdominal aorta was penetrated. The cannula of the radio telemetry unit was inserted and stabilized in the aorta using the 4-0 silk anchor. Organs were repositioned and the telemetry unit was placed over the organs. Using a non-interrupted suture pattern with 4-0 silk, the abdominal wall was closed, and the skin was subsequently closed using a 4-0 silk in an interrupted suture pattern. Animals were injected around the sutures with 100 μL of the anesthetic Marcaine HCl (Sanofi Winthrop Pharmaceuticals, New York, N.Y.) and given an injection (i.m.) of the antibiotic Mandol (Eli Lilly & Co., Indianapolis, Ind.). Post-operative care included monitoring the animals on a heating pad during recovery from anesthesia until sternal recumbency was reestablished. Animals were monitored daily for signs of distress and infection at the surgical site. Animals displaying continued discomfort after surgery were treated with 0.1-0.5 mg/kg, s.c. Buphrenorphine (Rickett & Colman Pharmaceuticals, Inc. Richmond, Va.). Animals were then placed on tap water and TEKLAD 22/5 rodent diet (Harlan TEKLAD, Madison, Wis.).
# Radiotelemetrized arterial blood pressure was calculated with the […]
structure (smiles),measurement,setting,value
COC(=O)[C@@H]1CC2=CC(=O)CC[C@]2(C)[C@@]23O[C@@H]2C[C@@]2(C)[C@@H](CC[C@@]24CCC(=O)O4)[C@H]13 [Eplerenone],Systolic Blood Pressure,[1],Neither eplerenone nor adrenalectomy reduced blood pressure
same,Systolic Blood Pressure,"[2]; Day 3, individual rats, 30-day protocol, listed as Eplerenone + aldosterone + salt",123 mmHg and 126 mmHg (2×) and 130 mmHg (2×) and 128 mmHg and 119 mmHg and 125 mmHg (2×)
same,Systolic Blood Pressure (mmHg),[2]; Day 3,126 ± 1 mmHg
same,Systolic Blood Pressure,"[2]; Day 4, individual rats, 30-day protocol, listed as Eplerenone + aldosterone + salt",130 mmHg (2×) and 128 mmHg (2×) and 131 mmHg and 139 mmHg and 122 mmHg and 126 mmHg and 134 mmHg
same,Systolic Blood Pressure (mmHg),[2]; Day 4,130 ± 2 mmHg
same,Systolic Blood Pressure,"[2]; Day 5, individual rats, 30-day protocol, listed as Eplerenone + aldosterone + salt",132 mmHg (2×) and 134 mmHg and 143 mmHg and 123 mmHg and 127 mmHg (2×) and 133 mmHg and 142 mmHg
same,Systolic Blood Pressure (mmHg),[2]; Day 5,132 ± 2 mmHg
same,Systolic Blood Pressure,"[2]; Day 6, individual rats, 30-day protocol, listed as Eplerenone + aldosterone + salt",133 mmHg (2×) and 142 mmHg and 136 mmHg and 152 mmHg and 126 mmHg and 137 mmHg and 140 mmHg and 150 mmHg
same,Systolic Blood Pressure (mmHg),[2]; Day 6,139 ± 3 mmHg
same,Systolic Blood Pressure,"[2]; Day 7, individual rats, 30-day protocol, listed as Eplerenone + aldosterone + salt",140 mmHg (3×) and 142 mmHg and 143 mmHg and 156 mmHg (2×) and 132 mmHg and 141 mmHg
same,Systolic Blood Pressure (mmHg),[2]; Day 7,143 ± 3 mmHg
same,Systolic Blood Pressure,"[2]; Day 8, individual rats, 30-day protocol, listed as Eplerenone + aldosterone + salt",142 mmHg and 146 mmHg and 141 mmHg and 156 mmHg and 131 mmHg and 138 mmHg (2×) and 139 mmHg and 152 mmHg
same,Systolic Blood Pressure (mmHg),[2]; Day 8,142 ± 3 mmHg
same,Systolic Blood Pressure,"[2]; Day 9, individual rats, 30-day protocol, listed as Eplerenone + aldosterone + salt",142 mmHg and 146 mmHg and 139 mmHg and 154 mmHg and 130 mmHg and 133 mmHg and 137 mmHg and 141 mmHg and 151 mmHg
same,Systolic Blood Pressure (mmHg),[2]; Day 9,142 ± 3 mmHg
same,Systolic Blood Pressure,"[2]; Day 10, individual rats, 30-day protocol, listed as Eplerenone + aldosterone + salt",143 mmHg (2×) and 138 mmHg and 158 mmHg and 134 mmHg and 136 mmHg and 139 mmHg and 142 mmHg and 149 mmHg
same,Systolic Blood Pressure (mmHg),[2]; Day 10,142 ± 2 mmHg
same,Systolic Blood Pressure,"[2]; Day 11, individual rats, 30-day protocol, listed as Eplerenone + aldosterone + salt",145 mmHg (2×) and 139 mmHg and 138 mmHg and 160 mmHg and 136 mmHg and 137 mmHg and 140 mmHg and 152 mmHg
same,Systolic Blood Pressure (mmHg),[2]; Day 11,143 ± 3 mmHg
same,Systolic Blood Pressure,"[2]; Day 12, individual rats, 30-day protocol, listed as Eplerenone + aldosterone + salt",147 mmHg and 140 mmHg (2×) and 139 mmHg (2×) and 165 mmHg and 137 mmHg and 148 mmHg and 154 mmHg
same,Systolic Blood Pressure (mmHg),[2]; Day 12,145 ± 3 mmHg
same,Systolic Blood Pressure,"[2]; Day 13, individual rats, 30-day protocol, listed as Eplerenone + aldosterone + salt",148 mmHg and 144 mmHg and 137 mmHg and 170 mmHg and 140 mmHg (3×) and 149 mmHg
same,Systolic Blood Pressure (mmHg),[2]; Day 13,147 ± 3 mmHg
same,Systolic Blood Pressure (mmHg),[2]; Day 14,150 ± 4 mmHg
same,Systolic Blood Pressure (mmHg),[2]; Day 15,148 ± 4 mmHg
same,Systolic Blood Pressure (mmHg),[2]; Day 16,150 ± 4 mmHg
same,Systolic Blood Pressure (mmHg),[2]; Day 17,154 ± 5 mmHg
same,Systolic Blood Pressure (mmHg),[2]; Day 18,157 ± 5 mmHg
same,Systolic Blood Pressure (mmHg),[2]; Day 19,160 ± 5 mmHg
same,Systolic Blood Pressure (mmHg),[2]; Day 20,160 ± 5 mmHg
same,Systolic Blood Pressure (mmHg),[2]; Day 21,165 ± 6 mmHg
same,Systolic Blood Pressure (mmHg),[2]; Day 22,167 ± 6 mmHg
same,Systolic Blood Pressure (mmHg),[2]; Day 23,172 ± 6 mmHg
same,Systolic Blood Pressure (mmHg),[2]; Day 25,176 ± 6 mmHg
same,Systolic Blood Pressure (mmHg),[2]; Day 26,180 ± 7 mmHg
same,Systolic Blood Pressure,"[2]; aldosterone + salt, uninephrectomized rats, up to 30 days, eplerenone 100 mg/kg/day",significantly reduced at days 8-30
